Eight molecules from patent publication US20200385371A1 (Propellon Therapeutics Inc., priority 2017, published 2020) can be followed below.

pEC50, pIC50, pKd: −log10 of the molar value. Like-named read-outs stand apart in the source and are kept apart here.

Assay [1] addresses T1, WDR5 (Homo sapiens, UniProt P61964). As to the kind of experiment: Fluorescence Polarization (FP) binding assay. In outline: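 Displacement of fluorescein-labelled H3 (1-15) (30 nM, with 0.3 μM WDR5) or 9-Ala-FAM (20 nM, with 0.05 μM WDR5) in 80 mM sodium phosphate pH 6.5, 20 mM KCl, 0.008% Triton X-100. FP read at 485/528 nm (H3) or 480/540 nm (9-Ala-FAM); Kdisp from hyperbolic fit, mean of quadruplicates.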

Another assay deals with MV4-11 cells. As to the kind of experiment: Cell proliferation assay (ATPlite). Type of assay: cell-based. Conditions: Homo sapiens; for pEC50: 120 h, MV4-11 cells, five days, read-out: GI MV411 EC50; for pIC50: MV4-11, Table 2. In outline:
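Cells seeded at 1,000/well in Alpha-MEM with 10% FBS, treated with compound over a 10-point range (top 10 μM) or DMSO. Grown five days at 37° C, 5% CO2; viability by ATPlite luminescence.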

Assay [2] has as its target T1, WDR5. Description: Surface Plasmon Resonance (SPR) assay. Type of assay: binding. On the set-up: Full length WDR5 with an N-terminal His tag and C-terminal AviTag; His tag (N); made in house; host or cells: E. coli. In outline: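 Full-length biotinylated WDR5 (N-His, C-AviTag, E. coli) captured (~3000 RU) on streptavidin SA chip; Biacore T200. HBS-EP pH 7.4 plus 5% DMSO running buffer, 40 μl/min.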

In the next assay the target is T2, MLL1-WRAD2 complex (Homo sapiens, UniProt P61964).
T2 construct: His tag (N); made in house; host or cells: E. coli
As to the kind of experiment: MLL1-WRAD2 enzyme assay (HMT). Type of assay: biochemical. The protocol:
Specifically, recombinant human MLL1 (aa 3745-3969, GenBank Accession No. NM_005933), WDR5 (aa 22-334, GenBank Accession No. NM_017588), RbBP5 (aa 1-538, GenBank Accession No. NM_005057), Ash2L (aa 2-534, GenBank Accession No. NM_001105214), and DPY-30 (aa 1-99, GenBank Accession No. NM_0325742), all with N-terminal His tag, are expressed in E. coli and mixed at a molar ratio of 1:1:1:1:2. 10 nM of the assembled MLL1-WRAD2 complex is mixed with 100 nM WRAD2 to enhance complex formation before incubation with 0.05 mg/ml nucleosome substrate and compounds (as 10 point duplicate dose response titrations) for 15 min in a buffer consisting of 50 mM Tris (pH 8.5), 5 mM MgCl2, 50 mM NaCl, 1 mM DTT, 0.01% Brij-35, and 1% DMSO. Reaction is initiated with 1 μM 3H-SAM and incubated for 1 hour at 30° C. Reaction mixture is transferred to P81 filter-paper and washed with PBS before detection.

Setting [3] is: Table 2, effect of difluoro substitution, read-out: KD (SPR).

Take `C[C@@H]1CN(c2cc(F)c(C3=CCCN(C(=O)c4csc(CN(C)C)n4)C3)c(F)c2NC(=O)c2c[nH]c(=O)cc2C(F)(F)F)C[C@H](C)N1C` [Example 189, N-(3-(1-(2-((dimethylamino)methyl)thiazole-4-carbonyl)-1,2,5,6-tetrahydropyridin-3-yl)-2,4-difluoro-6-((3S,5R)-3,4,5-trimethylpiperazin-1-yl)phenyl)-6-oxo-4-(trifluoromethyl)-1,6-dihydropyridine-3-carboxamide]: the pIC50 at WDR5 [1] was 7.90. Besides, the pEC50 with MV4-11 cells was 6.31. For the same molecule, at WDR5 [2] (read-out: SPR Kd), the pKd was 8.82.
As to `C[C@@H]1CN(c2ccc(-c3c(F)cc(N4C[C@@H](C)N(C)[C@@H](C)C4)c(NC(=O)c4c[nH]c(=O)cc4C(F)F)c3F)cn2)CCO1` [Example 190, N-(2,4-difluoro-3-(6-((R)-2-methylmorpholino)pyridin-3-yl)-6-((3S,5R)-3,4,5-trimethylpiperazin-1-yl)phenyl)-4-(difluoromethyl)-6-oxo-1,6-dihydropyridine-3-carboxamide], at WDR5 [1], the pIC50 was 7.89. Besides, in the assay on MV4-11 cells, the negative logarithm of the EC50 (pEC50) was 7.31. Moreover, the pKd at WDR5 [2] (read-out: SPR Kd) is 9.02.
The matching figures for `C[C@@H]1CN(c2ccc(-c3c(F)cc(N4C[C@@H](C)N(C)[C@@H](C)C4)c(NC(=O)c4c[nH]c(=O)cc4C(F)F)c3F)cn2)C[C@H](C)O1` [Example 191, 4-(Difluoromethyl)-N-(3-(6-((2S,6R)-2,6-dimethylmorpholino)pyridin-3-yl)-2,4-difluoro-6-((3S,5R)-3,4,5-trimethylpiperazin-1-yl)phenyl)-6-oxo-1,6-dihydropyridine-3-carboxamide]: 7.97, 7.39 and 8.97.
For `C[C@@H]1CN(c2cc(F)c(-c3ccc(N4CCO[C@@H](C)C4)nc3)c(F)c2NC(=O)c2c[nH]c(=O)cc2C(F)(F)F)C[C@H](C)N1C` [Example 192, N-(2,4-difluoro-3-(6-((S)-2-methylmorpholino)pyridin-3-yl)-6-((3S,5R)-3,4,5-trimethylpiperazin-1-yl)phenyl)-6-oxo-4-(trifluoromethyl)-1,6-dihydropyridine-3-carboxamide] the same measures were 7.78, 7.15 and 9.01.
Regarding `C[C@@H]1CN(c2ncc(-c3c(F)cc(N4C[C@@H](C)N(C)[C@@H](C)C4)c(NC(=O)c4c[nH]c(=O)cc4C(F)(F)F)c3F)cn2)C[C@H](C)O1` [drawing 478, reference compound], the pIC50 in the assay on MV4-11 cells was 7.51; on MLL1-WRAD2 complex (Table 2), 7.39. Also, the pKd at WDR5 [2] (setting [3]) was 8.74.
For `C[C@@H]1CN(c2cc(F)c(-c3cnc(N4CCOCC4)nc3)c(F)c2NC(=O)c2c[nH]c(=O)cc2C(F)(F)F)C[C@H](C)N1C` [drawing 479, reference compound], the pIC50 in the assay on MV4-11 cells is 7.52; on MLL1-WRAD2 complex (Table 2), 7.20. Also, the negative-log Kd (pKd) at WDR5 [2] (setting [3]) is 8.43.
With `C[C@@H]1CN(c2ncc(-c3cc(NC(=O)c4c[nH]c(=O)cc4C(F)(F)F)c(N4C[C@@H](C)N(C)[C@@H](C)C4)cc3F)cn2)C[C@H](C)O1` [reference compound], at MLL1-WRAD2 complex (Table 2, no unit printed in the cell), the pIC50 was 6.82. Also, on WDR5 [2] (setting [3]), the negative-log Kd (pKd) was 9.40.
For `C[C@@H]1CN(c2ccc(-c3cnc(N4CCOCC4)nc3)c(F)c2NC(=O)c2c[nH]c(=O)cc2C(F)(F)F)C[C@H](C)N1C` [reference compound], the pIC50 at MLL1-WRAD2 complex (Table 2) is 6.81. Moreover, the pKd at WDR5 [2] (setting [3]) was 8.96.
